We go through 38 molecules from patent US5849736A, “Isoxazoline and isoxazole fibrinogen receptor antagonists” (The DuPont Merck Pharmaceutical Company, priority 1995, dated 1998).

pIC50: −log10 of the molar value. Counter-ions that a name gives are not always drawn.

One assay concerns platelet aggregation in human platelet rich plasma (PRP). Put plainly: Platelet Aggregation Assay (platelet rich plasma, with or without esterase pretreatment). The note with it: Platelet, preincubated with 100 IU/mL porcine liver esterase 2 hours at 37° C., 100 μM ADP, read-out: Platelet Aggregation Assay IC50 (with esterase). The assay is classed as cell-based. The protocol: Venous blood was obtained from the arm of a healthy human donor who was drug-free and aspirin-free for at least two weeks prior to blood collection. Blood was collected into 10 mL citrated Vacutainer tubes. The blood was centrifuged for 15 minutes at 150×g at room temperature, and platelet-rich plasma (PRP) was removed. The remaining blood was centrifuged for 15 minutes at 1500×g at room temperature, and platelet-poor plasma (PPP) was removed. Samples were assayed on a aggregometer (PAP-4 Platelet Aggregation Profiler), using PPP as the blank (100% transmittance). 200 μL of PRP was added to each micro test tube, and transmittance was set to 0%. 20 μL of various agonists (ADP, collagen, arachidonate, epinephrine, thrombin) were added to each tube, and the aggregation profiles were plotted (% transmittance versus time). The results are expressed as % inhibition of agonist-induced platelet aggregation. For the IC50 evaluation, the test compounds were added at various concentrations prior to the activation of the platelets.
Ester prodrugs were preincubated (10^-3 M F.C.) with 100 IU/mL Porcine liver esterase (Sigma Chemical Co., St. Louis, Mo., #E-3128) for 2 hours at 37° C. Aliquots are then diluted in 0.1M Tris, pH 7.4, to the desired concentrations. Aliquots of 20 μl of the esterase pretreated prodrugs are added to 200 μl of human platelet rich plasma. Samples were placed in platelet profiler (aggregometer) for 8 minutes at 37° C., followed by the addition of 100 μM Adenosine Diphosphate, (Sigma Chemical Co., St. Louis, Mo., #A-6521), to induce platelet aggregation. Platelet aggregation was allowed to proceed for 5 minutes. Percent inhibition is calculated using percent aggregation in the presence of the test compound divided by percent aggregation of control, times 100. This value is subtracted from 100, yielding percent inhibition. Calculation of IC50 is performed on a Texas Instruments TI59 with an IC50 program.
Table A below sets forth the antiplatelet activity of representative compounds of the present invention. The indicated compounds were tested for their ability to inhibit platelet aggregation (using platelet rich plasma (PRP)). The IC50 value (the concentration of antagonist which inhibits platelet aggregation by 50% relative to a control lacking the antagonist) is shown. In Table 5 the IC50 values are expressed as: +++=IC50 of <10 μM; ++=IC50 of 10-50 μM; +=IC50 of 50-100 μM (μM=micromolar).
By pIC50 is commonly meant −log10 of the IC50, conventionally taken in molar units. For `COC(=O)C(CNC(=O)CC1CC(c2ccc(C(=N)N)cc2)=NO1)NS(=O)(=O)c1ccc(OC)cc1` (centres unmarked) [Example 484], the pIC50 is above 5.00. `COC(=O)C(CNC(=O)CC1CC(c2ccc(C(=N)N)cc2)=NO1)NS(=O)(=O)c1c(C)c(C)cc(C)c1C` (centres unmarked) [Example 485]: the pIC50 is above 5.00. On the same count and under the same terms, as for `COC(=O)C(CNC(=O)CC1CC(c2ccc(C(=N)N)cc2)=NO1)NS(=O)(=O)c1ccc(C#N)cc1` (centres unmarked) [Example 486], the figure is above 5.00; as for `COC(=O)C(CNC(=O)CC1CC(c2ccc(C(=N)N)cc2)=NO1)NS(=O)(=O)c1ccc(Cl)cc1` (centres unmarked) [Example 487], above 5.00; as for `CCc1ccc(S(=O)(=O)NC(CNC(=O)CC2CC(c3ccc(C(=N)N)cc3)=NO2)C(=O)OC)cc1` (centres unmarked) [Example 488], above 5.00. Same read-out and setting: as for `CCCc1ccc(S(=O)(=O)NC(CNC(=O)CC2CC(c3ccc(C(=N)N)cc3)=NO2)C(=O)OC)cc1` (centres unmarked) [Example 489], the figure is above 5.00; as for `CCCS(=O)(=O)NC(CNC(=O)CC1CC(c2ccc(C(=N)N)cc2)=NO1)C(=O)OC` (centres unmarked) [Example 490], above 5.00. With `COC(=O)C(CNC(=O)CC1CC(c2ccc(C(=N)N)cc2)=NO1)NS(=O)(=O)CCc1ccccc1` (centres unmarked) [Example 491], the negative-log IC50 (pIC50) is above 5.00. For `COC(=O)C(CNC(=O)CC1CC(c2ccc(C(=N)N)cc2)=NO1)NS(=O)(=O)c1ccc(C(C)C)cc1` (centres unmarked) [Example 492], the pIC50 is above 5.00.

As for `COC(=O)C(CNC(=O)CC1CC(c2ccc(C(=N)N)cc2)=NO1)NS(=O)(=O)CCCc1ccccc1` (centres unmarked) [Example 493], the pIC50 is above 5.00. For the molecule `COC(=O)C(CNC(=O)CC1CC(c2ccc(C(=N)N)cc2)=NO1)NS(=O)(=O)c1cccnc1` (centres unmarked) [Example 494], the pIC50 was above 5.00. On to `COC(=O)C(CNC(=O)CC1CC(c2ccc(C(=N)N)cc2)=NO1)NS(=O)(=O)c1ccccn1` (centres unmarked) [Example 495], for which the pIC50 was above 5.00. Same read-out and setting: as for `COC(=O)[C@H](CNC(=O)CC1CC(c2ccc(C(=N)N)cc2)=NO1)NS(=O)(=O)C=C(c1ccccc1)c1ccccc1` (stereo partly drawn) [Example 496, Methyl N^2-(2,2-diphenyl-1-ethenesulfonyl)-N^3-[3-(4-amidinophenyl)isoxazolin-5-(R,S)-ylacetyl]-(S)-2,3-diaminopropionate, trifluoroacetic acid salt], the figure is above 5.00; as for `CCCCNS(=O)(=O)NC(CNC(=O)CC1CC(c2ccc(C(=N)N)cc2)=NO1)C(=O)OC` (centres unmarked) [Example 504], above 5.00. For `COC(=O)C(CNC(=O)CC1CC(c2ccc(C(=N)N)cc2)=NO1)NS(=O)(=O)NCC(C)C` (centres unmarked) [Example 505], the negative logarithm of the IC50 (pIC50) was above 5.00. The same measure, in the same setting: as for `COC(=O)C(CNC(=O)CC1CC(c2ccc(C(=N)N)cc2)=NO1)NS(=O)(=O)NC(C)(C)C` (centres unmarked) [Example 506], the figure is above 5.00; as for `COC(=O)C(CNC(=O)CC1CC(c2ccc(C(=N)N)cc2)=NO1)NS(=O)(=O)NC(C)C` (centres unmarked) [Example 507], above 5.00. Consider `COC(=O)C(CNC(=O)CC1CC(c2ccc(C(=N)N)cc2)=NO1)NS(=O)(=O)NC1CCCCC1` (centres unmarked) [Example 508], for which the negative-log IC50 (pIC50) is above 5.00. Consider `COC(=O)C(CNC(=O)CC1CC(c2ccc(C(=N)N)cc2)=NO1)NS(=O)(=O)Nc1ccccc1` (centres unmarked) [Example 509], for which the negative logarithm of the IC50 (pIC50) was above 5.00.

On to `COC(=O)C(CNC(=O)CC1CC(c2ccc(C(=N)N)cc2)=NO1)NS(=O)(=O)NCc1ccccc1` (centres unmarked) [Example 510], for which the negative logarithm of the IC50 (pIC50) was above 5.00.

`COC(=O)[C@H](CNC(=O)CC1CC(c2ccc(C(=N)N)cc2)=NO1)NS(=O)(=O)N(C)C` (stereo partly drawn) [Example 511, Methyl N^2-(N,N-dimethylsulfamoyl)-N^3-[3-(4-amidinophenyl)isoxazolin-5-(R,S)-ylacetyl]-(S)-2,3-diaminopropionate, trifluoroacetic acid salt]: the negative-log IC50 (pIC50) is above 5.00. Consider `COC(=O)[C@H](CNC(=O)CC1CC(c2ccc(C(=N)N)cc2F)=NO1)NS(=O)(=O)c1cccc(C)c1` (some centres unmarked) [Example 512, Methyl N^2-(m-toluenesulfonyl)-N^3-[3-(4-amidino-2-fluorophenyl)isoxazolin-5-ylacetyl]-S-2,3-diaminopropionate hydrochloric acid salt], for which the negative-log IC50 (pIC50) is above 5.00. Take `CCCCOC(=O)N[C@@H](CNC(=O)CC1CC(c2ccc(C(=N)N)cn2)=NO1)C(=O)OC` (some centres unmarked) [Example 513, Methyl N^2-(n-butyloxycarbonyl)-N^3-[3-(3-amidinopyrid-6-yl)isoxazolin-5-ylacetyl]-S-2,3-diaminopropionate hydrochloric acid salt]: the pIC50 is above 5.00. In the case of `COC(=O)[C@H](CNC(=O)CC1CC(c2ccc(C(=N)N)cn2)=NO1)NS(=O)(=O)c1cccc(C)c1` (some centres unmarked) [Example 514, Methyl N^2-(m-toluenesulfonyl)-N^3-3-(3-amidinopyrid-6-yl)isoxazolin-5-ylacetyl]-S-2,3-diaminopropionate hydrochloric acid salt], the negative-log IC50 (pIC50) is above 5.00.

Turning to `CCCCOC(=O)N[C@@H](CNC(=O)CC1CC(c2ccc(C(=N)N)nc2)=NO1)C(=O)OC` (some centres unmarked) [Example 515, Methyl N^2-(n-butyloxycarbonyl)-N^3-[3-(2-amidinopyrid-5-yl)isoxazolin-5-ylacetyl]-S-2,3-diaminopropionate hydrochloric acid salt], the negative-log IC50 (pIC50) is above 5.00. Regarding `COC(=O)[C@H](CNC(=O)CC1CC(c2ccc(C(=N)N)nc2)=NO1)NS(=O)(=O)c1cccc(C)c1` (some centres unmarked) [Example 516, Methyl N^2-(m-toluenesulfonyl)-N^3-[3-(2-amidinopyrid-5-yl)isoxazolin-5-ylacetyl]-S-2,3-diaminopropionate hydrochloric acid salt], the pIC50 was above 5.00. Regarding `COC(=O)C(CNC(=O)CC1CC(c2ccc(C(=N)N)cc2)=NO1)NC(=O)Nc1ccc(F)cc1` (centres unmarked) [Example 518], the pIC50 was above 5.00. For `COC(=O)C(CNC(=O)CC1CC(c2ccc(C(=N)N)cc2)=NO1)NC(=O)Nc1cccc2ccccc12` (centres unmarked) [Example 519], the pIC50 is above 5.00. For `COC(=O)C(CNC(=O)CC1CC(c2ccc(C(=N)N)cc2)=NO1)NC(=O)NCc1ccccc1` (centres unmarked) [Example 520], the negative logarithm of the IC50 (pIC50) was above 5.00. Consider `CCc1ccc(C(=O)NC(CNC(=O)CC2CC(c3ccc(C(=N)N)cc3)=NO2)C(=O)OC)cc1` (centres unmarked) [Example 522], for which the negative logarithm of the IC50 (pIC50) is above 5.00. Consider `COC(=O)C(CNC(=O)CC1CC(c2ccc(C(=N)N)cc2)=NO1)NC(=O)c1ccc(-c2ccccc2)cc1` (centres unmarked) [Example 523], for which the pIC50 is above 5.00.

Regarding `COC(=O)C(CNC(=O)CC1CC(c2ccc(C(=N)N)cc2)=NO1)NC(=O)c1ccc2ccccc2c1` (centres unmarked) [Example 524], the pIC50 is above 5.00. Regarding `COC(=O)C(CNC(=O)CC1CC(c2ccc(C(=N)N)cc2)=NO1)NC(=O)OCc1ccccc1Cl` (centres unmarked) [Example 525], the negative logarithm of the IC50 (pIC50) is above 5.00. For `COC(=O)C(CNC(=O)CC1CC(c2ccc(C(=N)N)cc2)=NO1)NC(=O)OCc1ccccc1Br` (centres unmarked) [Example 527], the pIC50 is above 5.00. For the molecule `CCCCCCOC(=O)NC(CNC(=O)CC1CC(c2ccc(C(=N)N)cc2)=NO1)C(=O)OC` (centres unmarked) [Example 529], the negative logarithm of the IC50 (pIC50) was above 5.00.

Staying with this assay, now noted: Platelet, without esterase, read-out: Platelet Aggregation Assay IC50 (without esterase).
For `N=C(N)c1ccc(C2=NOC(CC(=O)NCC(NC(=O)OCc3ccccc3Cl)C(=O)O)C2)cc1` (centres unmarked) [Example 526], the pIC50 is above 5.00. Take `N=C(N)c1ccc(C2=NOC(CC(=O)NCC(NC(=O)OCc3ccccc3Br)C(=O)O)C2)cc1` (centres unmarked) [Example 528]: the pIC50 is above 5.00.

Still in this assay, the particulars now being: preincubated with 100 IU/mL porcine liver esterase 2 hours at 37° C., 100 μM ADP, read-out: Platelet Aggregation Assay IC50 (with esterase).
Turning to `COC(=O)[C@H](CNC(=O)CC1CC(c2ccc(C(=N)N)cc2)=NO1)NC(=O)Nc1ccccc1` (some centres unmarked) [Example 517], the negative-log IC50 (pIC50) was above 5.00.
